Data published in patent US20060073099A1, “Treatment screening methods” (priority 2004, published 2006).

System: Macaca mulatta (Rhesus monkey) exposed to a 6 Gy dose of γ-radiation (LD50/30)
Protocol: Treatment of whole body lethal radiation and characterization of mortality surrogate markers. Two groups of 10 Macaca mulatta (Rhesus monkey) were exposed to a 6 Gy dose of γ-radiation from a ^60Co source. This dose is an LD50/30 dose for this species. […] The animals in each group were treated once per day for 5 consecutive days beginning on the day the animals were exposed to radiation. The animals consisted of 12 males and 8 females with a body weight range of about 2.5-5.5 kg at the onset of treatment. The age range was 1.75-5.0 years at the onset of treatment.
Twelve male and eight female rhesus monkeys were assigned to the study. Each group comprised of seven male and three female animals. During the acclimation period, animals were assigned to their respective dose groups by randomization based on the absolute neutrophil count. The average of 3 pretreatment absolute neutrophil counts were used for each animal.
The test article (100 mg/mL AED) and vehicle or control article in aliquots of 10 mL. Test article was an aqueous suspension in vehicle. The vehicle article consists of a solution of sodium shloride (0.9% w/v), carboxymethylcellulose (0.5% w/v), polysorbate 80 (2% v/v), benzalkonium chloride (0.02% v/v) and sodium phosphate (10 mM, pH 6.5). Immediately prior to drawing into a syringe, the test article formulation was briefly vortexed to uniformly distribute sedimented test article. Once drawn into a syringe, the test article was administered within 10 minutes. Just prior to injection, the syringe containing the test article was rotated end-over-end to uniformly disperse the compound.
Whole body radiation. The animals were exposed to ionizing as follows. Dosimetry measurements using phantoms, the dose rate and duration of irradiation and the actual time of irradiation for each individual animal was recorded. Animals were fasted overnight prior to whole-body irradiation and fed upon return to the housing facility.
The animals received a midline treatment dose of 600 cGy. The dose rate of the ^60Co gamma source was about 60 cGy per minute and the actual rate was recorded for each animal. To obtain a homogenous dose distribution, the radiation treatment was divided in two parts. First, the animal received half of the dose by anteroposterior irradiation. The second half of the dose was delivered by posteroanterior irradiation. […] The radiation dose was calibrated using an acrylic phantom placed in the same experimental set up that was used for animal irradiation.

SMILES: C[C@]12CC[C@H]3[C@@H](CC=C4C[C@@H](O)CC[C@@]43C)[C@@H]1CC[C@@H]2O [3β,17β-dihydroxyandrost-5-ene]
- animals survived (600 cGy 60Co whole body γ-irradiation, 15 mg/kg i.m. once per day for 5 consecutive days, first injection 2-3 hours after irradiation, 10 animals, observed to day 40-41): 9 of 10
- days of severe thrombocytopenia (less than 20,000 platelets/μL) experienced collectively by the group (600 cGy whole body irradiation, 15 mg/kg i.m. daily x5, 10 animals, p=0.009 by exact test of homogeneity vs vehicle (51 days)): 32 days
- median days of febrile severe neutropenia (600 cGy whole body irradiation, 15 mg/kg i.m. daily x5, 95% CI 0,2, p=0.037 by exact log rank test vs vehicle (median 5 days)): 0 days
- Mortality (600 cGy whole body irradiation, 15 mg/kg i.m. daily x5, Fisher's exact test mid p=0.073 vs two combined control groups (45% mortality)): 10%
- survivors having febrile severe neutropenia (core body temperature >40.4° C. and absolute neutrophil count less than 500 cells/μL) at some time during the protocol (600 cGy whole body irradiation, 15 mg/kg i.m. daily x5, the one non-survivor did not have the condition): 2 animals
